Paper PMC3261883, “Structure of S. aureus HPPK and the Discovery of a New Substrate Site Inhibitor” (PLoS ONE, 2012)
In brackets after ≈: the same amount, converted by molar mass. Several values for one entry are separate records, joined by “and”; a condition that tells them apart may be missing. Equal values may be shown once. Read-outs that look alike come from different tables or passages of the source.

Columns and labels:
SaHPPK [1] = biological target: T1, SaHPPK (Staphylococcus aureus, UniProt A0A0H3JXR3); assay: biochemical; assay type: binding
T1 sequence (A0A0H3JXR3 entry or part of it): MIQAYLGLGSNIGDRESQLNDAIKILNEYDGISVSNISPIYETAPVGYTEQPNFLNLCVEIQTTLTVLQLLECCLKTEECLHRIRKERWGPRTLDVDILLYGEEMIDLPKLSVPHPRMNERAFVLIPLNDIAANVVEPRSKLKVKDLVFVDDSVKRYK

SaHPPK [2] = biological target: T1, SaHPPK; assay: Surface plasmon resonance (SPR) with biotinylated SaHPPK on NeutrAvidin chip; assay type: binding
SaHPPK [3] = biological target: T1, SaHPPK; assay: KinaseGlo luminescent biochemical assay of HPPK activity
SaHPPK [4] = assay: Differential scanning fluorimetry (DSF) assay for ligand binding; parameters: species or system Staphylococcus aureus; details: for increase in unfolding temperature (Tm): saturating ligand
Description: A 96-well plate containing solutions of 2–5 µM SaHPPK, 10× Sypro orange dye and 500 µM of test compound in buffer (50 mM HEPES (pH 8.0), 1% sorbitol, 2.0 mM DTT, 10 mM MgCl2) was heated from […] at a rate of 1.0 K min^−1. The fluorescence intensity was measured with excitation/emission wavelengths of 583/610 nm. Tm and ΔTm values were determined from the melting curves obtained.

E. coli = E. coli cell-based growth inhibition assays; details: data not shown
[5] = Solubility estimated from ITC experiments; assay type: physicochemical; details: ITC buffer, estimated assuming 1:1 binding stoichiometry
SaHPPK [6] = biological target: T1, SaHPPK; assay type: binding
B. anthracis DHPS = details: co-crystallisation; cited from earlier work
[7] = parameters: method as in PMID 17511860; details: in vivo mouse model; cited from earlier work
EcHPPK = details: cited from earlier work
E. coli HPPK = details: read-out: Km for the E. coli enzyme; different assays; cited from earlier work
[8] = ITC, 298 K, in the presence of 1 mM AMPCPP
[9] = ITC, 298 K, ligand alone, read-out: K d ITC
[10] = SPR steady-state, 293 K, ligand alone, read-out: K d SPR
[11] = in the absence of Mg2+, data not shown
[12] = SPR, 1:1 kinetic interaction model
[13] = fluorescence-based methods, in the presence of Mg2+, read-out: binding affinity (K d) of EcHPPK
[14] = read-out: dissociation constant for EcHPPK

Nc1nc2nc(S)[nH]c2c(=O)[nH]1 [8-mercaptoguanine]
N (binding stoichiometry) (SaHPPK [1]; [8]): 0.96±0.09 | TΔS (SaHPPK [1]; [8]): -10.4 ± 1.5 kcal/mol | ΔG (SaHPPK [1]; [8]): -6.8 ± 0.1 kcal/mol | ΔH (SaHPPK [1]; [8]): -17.2 ± 1.4 kcal/mol | Kd (SaHPPK [1]; ITC, 298 K, in the presence of 1 mM AMPCPP, read-out: K d ITC): 11.3 ± 2.3 µM | N (binding stoichiometry) (SaHPPK [1]; ITC, 298 K, ligand alone): 1.00±0.06 | TΔS (SaHPPK [1]; ITC, 298 K, ligand alone): -12.9 ± 3.5 kcal/mol | ΔG (SaHPPK [1]; ITC, 298 K, ligand alone): -6.7 ± 0.2 kcal/mol | ΔH (SaHPPK [1]; ITC, 298 K, ligand alone): -19.6 ± 3.4 kcal/mol | Kd (SaHPPK [1]; [9]): 12.8 ± 3.4 µM | ligand efficiency (SaHPPK [1]; K d ∼13 µM over 12 heavy atoms): 2.3 kJ/heavy atom | Kd (SaHPPK [1]; absence of cofactor, read-out: equilibrium dissociation constant Kd, summary value from ITC and SPR): ~13 µM and ~12 µM | times more tightly bound than HMDP (SaHPPK [2]): ~10 times | Kd (SaHPPK [2]; SPR steady-state, 293 K, in the presence of 5 mM ATP, read-out: K d SPR): 8.1 ± 1.6 µM | Kd (SaHPPK [2]; [10]): 10.8 ± 0.4 µM | IC50 (SaHPPK [3]; HMDP 0.3 µM, ATP 0.2 µM, read-out: IC50 for inhibition of SaHPPK): 41 µM and ~41 µM | increase in Tm compared to apo (SaHPPK [4]; 500 µM ligand, 5 µM enzyme): 3.4 °C | growth inhibition (E. coli): did not observe growth inhibition | solubility [5]: ~300 µM (≈ 55 µg/mL) | K d indicated by NMR exchange regime (SaHPPK [6]): low µM range | binding and inhibition of B. anthracis DHPS (B. anthracis DHPS): bind to, but not inhibit | antiviral activity and toxicity [7]: Antiviral activity,without significant toxicity

Nc1ncnc2c1ncn2[C@@H]1O[C@H](COP(=O)(O)OP(=O)(O)O)[C@@H](O)[C@H]1O [ADP]
Kd (SaHPPK [2]; [10]): 760 ± 16 µM

Nc1ncnc2c1ncn2C1OC(COP(=O)(O)CP(=O)(O)OP(=O)(O)O)C(O)C1O (stereo not drawn) [AMPCPP, α,β-methylene adenosine 5′-triphosphate]
fold tighter binding than ATP (SaHPPK [1]; ITC affinity ratio): approximately 10 fold | N (binding stoichiometry) (SaHPPK [1]; ITC, 298 K, ligand alone): 1.06±0.12 | TΔS (SaHPPK [1]; ITC, 298 K, ligand alone): 1.3 ± 1.0 kcal/mol | ΔG (SaHPPK [1]; ITC, 298 K, ligand alone): -7.5 ± 0.2 kcal/mol | ΔH (SaHPPK [1]; ITC, 298 K, ligand alone): -6.3 ± 1.0 kcal/mol | Kd (SaHPPK [1]; [9]): 3.1 ± 1.2 µM | binding by ITC (SaHPPK [1]; [11]): no significant binding | Kd (SaHPPK [2]; [10]): 7.7 ± 0.4 µM | k a (SaHPPK [2]; [12]): 8.8±1.3×10^4 M^−1 s^−1 | k d (SaHPPK [2]; [12]): 0.5 ± 0.1 s⁻¹ | Kd (SaHPPK [2]; SPR, from k d/k a ratio, read-out: K d from kinetic interaction model): 5.4 ± 0.3 µM | increase in unfolding temperature (Tm) (SaHPPK [4]): 11 °C | Kd (EcHPPK; [13]): 0.08 to 0.45 µM | Kd (EcHPPK; [14]): 0.45 µM

Nc1ncnc2c1ncn2[C@@H]1O[C@H](COP(=O)(O)O)[C@@H](O)[C@H]1O [AMP]
Kd (SaHPPK [2]; [10]): 4900 ± 1100 µM

Nc1ncnc2c1ncn2[C@@H]1O[C@H](COP(=O)(O)OP(=O)(O)OP(=O)(O)O)[C@@H](O)[C@H]1O [ATP]
N (binding stoichiometry) (SaHPPK [1]; ITC, 298 K, ligand alone): 0.98±0.11 | TΔS (SaHPPK [1]; ITC, 298 K, ligand alone): -0.3 ± 0.5 kcal/mol | ΔG (SaHPPK [1]; ITC, 298 K, ligand alone): -6.2 ± 0.1 kcal/mol | ΔH (SaHPPK [1]; ITC, 298 K, ligand alone): -6.5 ± 0.4 kcal/mol | Kd (SaHPPK [1]; [9]): 31 ± 4.5 µM | binding by ITC (SaHPPK [1]; [11]): no significant binding | Kd (SaHPPK [2]; [10]): ~45 µM and 45 µM | Km (SaHPPK [3]; KinaseGlo assay, read-out: Km app): 10.8 ± 2.5 µM | increase in unfolding temperature (Tm) (SaHPPK [4]): 6 °C | Kd (EcHPPK; [13]): 2.6 to 4.5 µM | Kd (EcHPPK; [14]): 2.6 µM

Nc1nc2c(c(=O)[nH]1)N=C(CO)CN2 [HMDP, 6-hydroxymethyl-7,8-dihydropterin]
N (binding stoichiometry) (SaHPPK [1]; [8]): 1.23±0.15 | TΔS (SaHPPK [1]; [8]): -3.1 ± 0.9 kcal/mol | ΔG (SaHPPK [1]; [8]): -7.4 ± 0.2 kcal/mol | ΔH (SaHPPK [1]; [8]): -10.5 ± 1.0 kcal/mol | Kd (SaHPPK [1]; K d ITC, ITC, 298 K, in the presence of 1 mM AMPCPP): ~4 µM and 4 µM | binding by ITC (SaHPPK [1]; in the presence of the inhibitor 8-mercaptoguanine): could not be detected | Kd (SaHPPK [2]; K d SPR, SPR steady-state, 293 K, in the presence of AMPCPP): 3.6 ± 0.3 µM | Kd (SaHPPK [2]; K d SPR, SPR steady-state, 293 K, ligand alone): ~100 µM and 100 µM | Kd (EcHPPK; in the presence of Mg2+ and AMPCPP, read-out: binding affinity of EcHPPK): 0.036 to 0.17 µM | Km (E. coli HPPK): 0.7 to 1.6 µM

Nc1nc2nc[nH]c2c(=O)[nH]1 [guanine]
affinity by SPR (SaHPPK [2]; data not shown): undetectable

Mg-GTP
affinity of EcHPPK, fold less than for Mg-ATP (EcHPPK): 260 fold
